# In patent US6600076B1, “Cleavable, water-soluble surfactants” (The Regents of the University of California, priority 1999, dated 2003):
# Like-named read-outs stand apart in the source and are kept apart here.
# What was measured:
# [1] = cited from earlier work
# [2] = Stability of solid and of aqueous solutions (surface tension over time); format: physicochemical; details: 1 mM solution in 50 mM phosphate buffer (pH 6.9)
# [3] = Surface tension after oxidation with NaOCl or bleach (pendant drop); format: physicochemical; details: for surface tension: 4 mM
# Procedure: To test the idea that oxidation of 1 by NaOCl would transform 1 into less surface-active products, changes in surface tensions that accompanied additions of aliquots of NaOCl to solutions of 1 were measured. The amount of OCl^− consumed by reaction with 1 was also determined by iodometry. The initial surface tension of the 2 mM solution (using the pendant drop technique) was measured to be 48 mN/m. […] The addition of subsequent aliquots of NaOCl, however, caused the surface tension to increase to ˜71 mN/m. […] In this case, only ˜8% of the OCl^− added remained unreacted.
# The oxidation of 1 using NaOCl (6:1 ratio of NaOCl to 1) was performed in 50 mM phosphate buffers at three different pHs (pH 3, 6.9, and 11). Following the addition of NaOCl to aqueous solutions of 1 at pH 3 and pH 6.9, the surface tensions of the solutions were measured to increase from ˜48 mN/m to ˜71 mN/m within ˜5 min (FIG. 17). The surface tension was also determined to increase from ˜48 mN/m to ˜71 mN/m upon addition of NaOCl to an aqueous solution of 1 at pH 11. In this case, however, it took ˜15 min for the surface tension to increase to 71 mN/m. […] Therefore disulfide-based surfactants can form the basis of chemodegradable surfactant system that can be used over a wide pH range.
# Household bleach was added (6:1 ratio of NaOCl to 1) to a 2 mM solution of 1 in pH 6.9 buffer. Upon addition of bleach to 1, the surface tension of the solution increased from 48 mN/m to ˜71 mN/m in ˜3 min (FIG. 18A), a result similar to our earlier observations based on the addition of NaOCl to 1. […] A control experiment was performed in which the household bleach was added to the phosphate buffer and found not to change the surface tension.
# [4] = Surface tension of aqueous solutions, maximum bubble pressure tensiometer, incl. reduction with DTT; format: physicochemical; details: for effect on surface tension of water: 10 mM DTT and 1 mM oxidized DTT added to water
# Description: (Menger, F. M. et al., J. Am. Chem. Soc. 115:10083-10090 (1993)). […] The surface tensions of the reacting system reported herein correspond, therefore, to a local steady state at the surface of the solution. In the absence of reaction, these surface tensions are equilibrium tensions.
# [5] = Interfacial tension between dodecane and aqueous solution on oxidation by NaOCl; format: physicochemical
# [6] = 10 mM of 1, 5 wt. % dodecane, NaOCl 6:1
# Procedure: The mixture was sonicated on a setting of 2 for a period of 20 s and then vortexed for 1 min to ensure that the emulsion was thoroughly mixed.
# The disruption of the emulsion was determined by the observation of phase separation in the reaction vial.
# A single emulsion was first divided into two vials. […] The second vial was used as a control.
# [7] = DTT (10 equivalents) added
# Procedure: This mixture was sonicated on a setting of 50 for a period of 10 s and then vortexed for 1 min to ensure that the emulsion was thoroughly mixed.
# [8] = Surface tension, pendant drop; details: 50 mM phosphate buffer pH 6.9, concentrations around or above 10 mM
# [9] = Equilibrium surface tension, Wilhelmy plate, borate buffer; format: physicochemical; details: 100 mM borate buffer, pH 9.2
# Procedure: Disulfide-containing surfactants with anionic head groups were synthesized. […] Equilibrium surface tensions were measured using a Kruss K10T tensiometer with a platinum Wilhelmy plate. Surfactant solutions were prepared in a 100 mM borate buffer, pH 9.2.
# Cyclic voltammetry = format: physicochemical; details: 5 mM of 1 or 10 mM of 2, 50 mM phosphate buffer pH 6.9, SCE reference
# Procedure: Solutions were prepared in 50 mM phosphate buffer, pH 6.9. Application of potential was controlled using a potentiostat (Pine Instruments, Grove City, Pa.), and the experimental set-up involved using a carbon felt working electrode with cobalt phthalocyanine (catalyst) evaporated onto the surface of the electrode. A platinum counter electrode and SCE reference electrode were also used.
molecule,measurement,setting,value
"CCCCCCCCCCCCCCCC[N+](C)(C)C.[Br-] [CTAB, cetyltrimethylammonium bromide]",limiting surface tension (γlim),[1]; in 0.1 M lithium sulfate,39 mN/m
same,increase in surface tension over 24 h,[2],~0.5 mN/m
same,increase in surface tension over 5 days,[2],1 mN/m
same,surface tension,[2],~41 mN/m
"CCCCCCCCCCCC[N+](C)(C)C.[Br-] [DTAB, dodecyltrimethylammonium bromide, reference compound]",surface tension of the initial solution,"[3]; 4 mM solution, before NaOCl",~52 mN/m
same,surface tension,[3]; first equivalent of NaOCl,~43 mN/m
same,surface tension,[3]; second equivalent of NaOCl,~50 mN/m
same,surface tension,[3]; up to six equivalents of NaOCl,45 mN/m
"OC1CSSCC1O (centres unmarked) [oxidized DTT, reference compound]",effect on surface tension of water,[4],did not result in a change in surface tension
bis(8-trimethylammonium bromide)dioctyl disulfide [compound 1],time for the interfacial tension to increase,"[5]; 10 mM, 6 equivalents of NaOCl",≤ 3 min
same,completion of phase separation of the emulsion,[6],45 min
same,evidence of phase separation of the emulsion,[6],≤ 10 min
same,duration of the rapid oxidation,[3],2 to 3 min
same,time for the surface tension to increase,"[3]; NaOCl 6:1, pH 3 and pH 6.9",≤ 5 min
same,time for the surface tension to increase,"[3]; NaOCl 6:1, pH 11",~15 min
same,time for the surface tension to increase,"[3]; household bleach, 6:1, pH 6.9",~3 min
same,completion of phase separation of the emulsion,[7],~120 min
"O=C(O)CCCCCCCS [compound 4, 8-mercaptooctanoic acid]",limiting surface tension,[8],~47 mN/m
same,surface pressure π at the interface of dodecane and water,[5]; 10 mM of 1 oxidized,22.5 mN/m
same,surface pressure π at the surface of water,[5]; concentration of 10 mN (printed),2 mN/m
same,surface activity of the oxidation product,"[3]; up to a concentration of 10 mM, 6:1 NaOCl to 1",surface-inactive
"C[N+](C)(C)CCCCCCCCCCCC[N+](C)(C)C.[Br-].[Br-] [dodecane-1,12-bis(trimethylammoniumdibromide)]",limiting surface tension,[1]; dissolved into water,38 mN/m
"1,16-dicarboxylic dioctyl disulfide [compound 3]",differences in equilibrium surface tensions between 3 and 4 at a specified concentration,[9],up to 16 mN/m
"C[N+](C)(C)CCCCCCCCS.[Br-] [compound 2, (8-mercaptooctyl)trimethylammonium bromide]",average area occupied at the surface,"[4]; 2 mM solution of 2, Gibbs adsorption equation",> 500 A^2/molecule
same,threshold concentration of surfactant causing a measurable reduction in surface tension,"[4]; 50 mM phosphate buffer, pH 6.9, 25° C.",~1 mM
same,oxidation peak,Cyclic voltammetry,0.55 V
"CCCCCCCCCCCCOS(=O)(=O)[O-].[Na+] [SDS, sodium dodecyl sulfate]",surface pressure at an air-aqueous interface,[1]; 1 mM solution,7.5 mN/m
same,surface pressure at the heptadecane-aqueous interface,[1]; 1 mM solution,15.2 mN/m
"O[C@H](CS)[C@H](O)CS (racemic) [DTT, dithiothreitol, reference compound]",effect on surface tension of water,[4],did not result in a change in surface tension
